Data taken from PMC6885504 (American Journal of Cardiovascular Drugs, 2019).
“Also recorded” adds a separate entry of the source. Where two headings read alike, the source gives them in different places.

What was measured:
[1] = Safety assessments; format: in vivo, human; settings: for safety and tolerability: apixaban 10 mg alone and in combination with clarithromycin IR 500 mg bid, healthy adults
[2] = tested on: CYP3A4; settings: cited from earlier work
[3] = format: in vivo, human
[4] = cited from earlier work
[5] = cited from earlier work; remark: listed apart in the source
[6] = during treatment with the agent alone, of 19 subjects
[7] = coadministered with multiple doses of clarithromycin vs apixaban alone
[8] = whole study (apixaban alone, clarithromycin alone, both together)

Compound	subjects reporting at least one AE [1, 6] [%]	subjects with AEs considered related to study drug [1, 6] [%]	increase in AUC of midazolam ([2]; clarithromycin as inhibitor)	increase in AUC of midazolam ([2]; ketoconazole as inhibitor)	increase in apixaban AUC(0–T) [3, 7] [%]	increase in apixaban AUC(INF) [3, 7] [%]	increase in apixaban Cmax [3, 7] [%]	time at which apixaban reached maximum concentration after dosing ([3]; concentration–time profiles day 1 and day 8 (Fig. 2)) [h]	safety and tolerability [1]	safety and tolerability ([1]; listed as apixaban)	subjects experiencing additional AEs ([1]; apixaban and clarithromycin together, of 18 subjects) [%]	bleeding-related AEs, deaths, serious AEs [1, 8]	intensity of adverse events [1, 8]	half-life [4] [h]	oral bioavailability [4] [%]	renal clearance as share of total systemic clearance [4] [%]	change in apixaban exposure ([5]; coadministered with ketoconazole vs apixaban alone)	decrease in apixaban exposure ([5]; coadministered with rifampin vs apixaban alone) [%]
CC[C@H]1OC(=O)[C@H](C)[C@@H](O[C@H]2C[C@@](C)(OC)[C@@H](O)[C@H](C)O2)[C@H](C)[C@@H](O[C@@H]2O[C@H](C)C[C@H](N(C)C)[C@H]2O)[C@](C)(OC)C[C@@H](C)C(=O)[C@H](C)[C@@H](O)[C@]1(C)O [clarithromycin]	42.1	26.3	260–860%	–	–	–	–	–	–	–	–	–	–	–	–	–	–	–
CC(=O)N1CCN(c2ccc(OCC3COC(Cn4ccnc4)(c4ccc(Cl)cc4Cl)O3)cc2)CC1 (stereo not shown) [ketoconazole]	–	–	–	420–1500%	–	–	–	–	–	–	–	–	–	–	–	–	–	–
COc1ccc(-n2nc(C(N)=O)c3c2C(=O)N(c2ccc(N4CCCCC4=O)cc2)CC3)cc1 [Apixaban]	5.3	–	–	–	60	60	30	3	Apixaban 10 mg alone and in combination with twice-daily clarithromycin immediate release 500 mg was safe and generally well-tolerated by healthy adult volunteers.	safe and generally well-tolerated	22.2	no bleeding-related AEs, deaths, or serious AEs	mild	12	~50	~27	approximately doubled; also recorded: twofold	50
